# Measured values published in patent US8395037B2, “Pharmaceutical compositions for treating/preventing motor organ diseases” (Mitsubishi Corporation, priority 2005, dated 2013).
# Legend:
# MMP-3 [1] = assay: MMP-3 production in cultured chondrocytes treated with cartilage degenerating factor (ELISA); type: cell-based, human; conditions: for Production of MMP-3: IL-1β or H2O2 treated chondrocytes, 50 or 100 μM, 24 h
# Method: Chondrocytes isolated from human articular cartilage tissues were used for cultured cells. After obtaining informed consent, cartilage tissues were collected from surgically-removed tissues from eight osteoarthritis patients. The collected tissues were sliced and then treated in a liquid low-glucose Dulbecco's modified Eagle's medium (DMEM, manufactured by Gibco Co.) containing 1.5 mg/ml collagenase B at 37° C. overnight, to isolate chondrocytes for culture. The cells were normally cultured in a culture flask (culture area: 25 cm^2), and in a polystyrene culture dish (diameter: 6 cm) for use in the experiments. […]
# Influence of hydroxylated C60 fullerene on cartilage matrix-degrading enzyme production which is enhanced by cartilage catabolism inducers was analyzed using the enzyme-linked immunoassay (ELISA) method.
# Chondrocytes that had been isolated and cultured by the above method (1) were subjected to two passage cultures. […] After a 24 hour incubation, the culture supernatant was collected, and the concentrations of cartilage matrix-degrading enzymes, matrix metalloprotease (MMP)-1, 3, and 13, were measured.
# The concentrations of MMP-1, MMP-3, and MMP-13 in the culture supernatant were determined using ELISA kits (kits for MMP-1 and MMP-3, manufactured by R&D Co.; and a kit for MMP-13, manufactured by Amersham), which is the standard technique currently known in the art. […] 100 μl of 1.5 N H3PO4 was added to each well to stop the color reaction, and the absorbance at 450 nm was measured using a microtiter plate reader. According to the instructions provided by the manufacturer, the measured concentrations were calibrated using a lyophilized control reagent.
# MMP-13 = MMP-13 concentration in synovial fluid of osteoarthritis model knee joints (ELISA); type: in vivo, rabbit; conditions: various concentrations, sequential measurement, versus control knees
# Method: (§1) Sequential biochemical examinations of blood and synovial fluid were also performed (pre-administration and fourth- and eighth-week post-administration of water-solubilized fullerene). The observed biochemical examination items were (A) hepatic function (GOT and GPT), renal function (urea nitrogen and creatinine), and electrolytes (Na, K, and Cl), (B) extracellular matrix-degrading enzyme production ability (MMP-1, 3, and 13), and (C) cartilage matrix-synthesizing ability (proteoglycan). The items of (A) were measured by commercially available testing equipments and items of (B) and (C) were measured by ELISA method.
# MMP-3 [2] = assay: MMP-3 concentration in synovial fluid of osteoarthritis model knee joints (ELISA); type: in vivo, rabbit; conditions: various concentrations, sequential measurement, versus control knees
# Method: as §1
# proteoglycan = assay: Proteoglycan production in cultured chondrocytes (western blotting); type: cell-based, human; conditions: chondrocytes treated with cartilage degenerating factors
# Method: Chondrocytes prepared according to the above method and chondrocytes of the control groups were collected with a cell scraper, and centrifuged to remove the supernatant. Then, 0.5% Triton X-100 aqueous solution was added thereto, and ultrasonic disintegration was performed on ice for one minute, to obtain a protein extract. The concentrations of the respective protein solutions were measured, and each sample was placed on 5% to 10% gradient SDS-polyacrylamide electrophoresis gel at 100 ng/lane, and subjected to electrophoresis.
# Proteins in the gel were transferred onto a polyvinylidene difluoride membrane (manufactured by Pharmacia Co.) using a semidry blotting apparatus (manufactured by Amersham). The membrane was blocked with 5% skim milk (manufactured by Morinaga Co.), and then treated with 5 μg/ml of anti-proteoglycan monoclonal antibodies (manufactured by Chemicon Co.) at room temperature for one hour. The membrane was washed with PBS containing 0.01% Tween-20 (hereunder, abbreviated as “TPBS”), and then treated with 5,000-fold-diluted peroxidase-labeled anti-mouse IgG antibodies (manufactured by Amersham) as secondary antibodies, at room temperature for one hour. […]
substance,measurement,setting,value
hydroxylated C60 fullerene,Production of MMP-3,MMP-3 [1],inhibited in all cases
same,Production of MMP-3,MMP-3 [1]; listed as fullerene,decreased the amount of MMP-3 produced
same,Inhibitory effect on production of MMP-3,MMP-3 [1]; hypoxic condition,also observed
same,MMP-13 concentration in synovial fluid,MMP-13,MMP-13 production inhibitory effect was observed
same,MMP-3 concentration in synovial fluid,MMP-3 [2],No remarkable difference
same,Production of proteoglycan (western blotting),proteoglycan,"the inhibition against the production of cartilage matrix, proteoglycan, due to the cartilage degenerating factors was inhibited"
same,Production of proteoglycan (western blotting),proteoglycan; listed as fullerene,restored
